In publication PMC9927415, “Tyrosine Kinase Inhibitors Display Potent Activity against Cryptosporidium parvum” (Microbiology Spectrum, 2022):

Assays:
Assay in all cases: KINOMEscan competitive binding, whole panel
panel of 203 kinases [1] = target: T1, panel of 203 kinases (Homo sapiens, UniProt Q9HC98); conditions: 10 µM, n=1; kinase NEK6; read-out: Percent inhibition NEK6
T1 construct: purchased DiscoverX (KINOMEscan)
Method in brief: (§1)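 Kinases expressed as T7 bacteriophage fusions; test compound competes with an immobilized ATP-site probe ligand. Kinase still bound to the solid support was quantified and expressed as percentage inhibition.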

panel of 203 kinases [2] = target: T2, panel of 203 kinases (Homo sapiens, UniProt P41240); conditions: 10 µM, n=1; kinase CSK; read-out: Percent inhibition CSK
T2 construct: purchased DiscoverX (KINOMEscan)
T2 sequence (P41240 whole entry): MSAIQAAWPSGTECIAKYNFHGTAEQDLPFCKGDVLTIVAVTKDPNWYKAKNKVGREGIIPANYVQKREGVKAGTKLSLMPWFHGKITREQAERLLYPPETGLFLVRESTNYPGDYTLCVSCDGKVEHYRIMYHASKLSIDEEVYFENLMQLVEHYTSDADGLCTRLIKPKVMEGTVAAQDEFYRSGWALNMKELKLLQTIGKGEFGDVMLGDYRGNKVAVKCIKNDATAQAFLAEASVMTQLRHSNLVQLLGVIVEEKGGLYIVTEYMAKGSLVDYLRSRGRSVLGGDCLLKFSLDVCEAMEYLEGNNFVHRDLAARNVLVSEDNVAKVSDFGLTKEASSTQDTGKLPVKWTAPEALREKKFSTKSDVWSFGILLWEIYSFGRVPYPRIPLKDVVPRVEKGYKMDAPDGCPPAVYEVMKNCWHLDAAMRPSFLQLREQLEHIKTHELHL
Method in brief: as §1

panel of 203 kinases [3] = target: T3, panel of 203 kinases (Homo sapiens, UniProt Q9UEE5); conditions: 10 µM, n=1; kinase DRAK1; read-out: Percent inhibition DRAK1
T3 construct: purchased DiscoverX (KINOMEscan)
T3 sequence (Q9UEE5 1-414): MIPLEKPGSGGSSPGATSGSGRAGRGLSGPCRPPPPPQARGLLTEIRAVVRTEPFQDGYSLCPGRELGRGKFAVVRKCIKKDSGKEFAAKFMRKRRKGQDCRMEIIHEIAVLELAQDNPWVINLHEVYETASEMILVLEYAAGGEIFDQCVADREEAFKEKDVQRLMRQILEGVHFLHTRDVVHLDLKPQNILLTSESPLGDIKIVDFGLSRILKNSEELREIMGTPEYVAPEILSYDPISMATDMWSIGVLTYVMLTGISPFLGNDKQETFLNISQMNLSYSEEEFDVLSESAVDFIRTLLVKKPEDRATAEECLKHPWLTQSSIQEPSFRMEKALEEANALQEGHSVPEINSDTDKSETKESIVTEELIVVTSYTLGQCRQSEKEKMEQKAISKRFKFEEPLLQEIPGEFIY
Method in brief: as §1

panel of 203 kinases [4] = target: T4, panel of 203 kinases (Homo sapiens, UniProt Q5VT25); conditions: 10 µM, n=1; kinase MRCKA; read-out: Percent inhibition MRCKA
T4 construct: purchased DiscoverX (KINOMEscan)
T4 sequence (Q5VT25 whole entry): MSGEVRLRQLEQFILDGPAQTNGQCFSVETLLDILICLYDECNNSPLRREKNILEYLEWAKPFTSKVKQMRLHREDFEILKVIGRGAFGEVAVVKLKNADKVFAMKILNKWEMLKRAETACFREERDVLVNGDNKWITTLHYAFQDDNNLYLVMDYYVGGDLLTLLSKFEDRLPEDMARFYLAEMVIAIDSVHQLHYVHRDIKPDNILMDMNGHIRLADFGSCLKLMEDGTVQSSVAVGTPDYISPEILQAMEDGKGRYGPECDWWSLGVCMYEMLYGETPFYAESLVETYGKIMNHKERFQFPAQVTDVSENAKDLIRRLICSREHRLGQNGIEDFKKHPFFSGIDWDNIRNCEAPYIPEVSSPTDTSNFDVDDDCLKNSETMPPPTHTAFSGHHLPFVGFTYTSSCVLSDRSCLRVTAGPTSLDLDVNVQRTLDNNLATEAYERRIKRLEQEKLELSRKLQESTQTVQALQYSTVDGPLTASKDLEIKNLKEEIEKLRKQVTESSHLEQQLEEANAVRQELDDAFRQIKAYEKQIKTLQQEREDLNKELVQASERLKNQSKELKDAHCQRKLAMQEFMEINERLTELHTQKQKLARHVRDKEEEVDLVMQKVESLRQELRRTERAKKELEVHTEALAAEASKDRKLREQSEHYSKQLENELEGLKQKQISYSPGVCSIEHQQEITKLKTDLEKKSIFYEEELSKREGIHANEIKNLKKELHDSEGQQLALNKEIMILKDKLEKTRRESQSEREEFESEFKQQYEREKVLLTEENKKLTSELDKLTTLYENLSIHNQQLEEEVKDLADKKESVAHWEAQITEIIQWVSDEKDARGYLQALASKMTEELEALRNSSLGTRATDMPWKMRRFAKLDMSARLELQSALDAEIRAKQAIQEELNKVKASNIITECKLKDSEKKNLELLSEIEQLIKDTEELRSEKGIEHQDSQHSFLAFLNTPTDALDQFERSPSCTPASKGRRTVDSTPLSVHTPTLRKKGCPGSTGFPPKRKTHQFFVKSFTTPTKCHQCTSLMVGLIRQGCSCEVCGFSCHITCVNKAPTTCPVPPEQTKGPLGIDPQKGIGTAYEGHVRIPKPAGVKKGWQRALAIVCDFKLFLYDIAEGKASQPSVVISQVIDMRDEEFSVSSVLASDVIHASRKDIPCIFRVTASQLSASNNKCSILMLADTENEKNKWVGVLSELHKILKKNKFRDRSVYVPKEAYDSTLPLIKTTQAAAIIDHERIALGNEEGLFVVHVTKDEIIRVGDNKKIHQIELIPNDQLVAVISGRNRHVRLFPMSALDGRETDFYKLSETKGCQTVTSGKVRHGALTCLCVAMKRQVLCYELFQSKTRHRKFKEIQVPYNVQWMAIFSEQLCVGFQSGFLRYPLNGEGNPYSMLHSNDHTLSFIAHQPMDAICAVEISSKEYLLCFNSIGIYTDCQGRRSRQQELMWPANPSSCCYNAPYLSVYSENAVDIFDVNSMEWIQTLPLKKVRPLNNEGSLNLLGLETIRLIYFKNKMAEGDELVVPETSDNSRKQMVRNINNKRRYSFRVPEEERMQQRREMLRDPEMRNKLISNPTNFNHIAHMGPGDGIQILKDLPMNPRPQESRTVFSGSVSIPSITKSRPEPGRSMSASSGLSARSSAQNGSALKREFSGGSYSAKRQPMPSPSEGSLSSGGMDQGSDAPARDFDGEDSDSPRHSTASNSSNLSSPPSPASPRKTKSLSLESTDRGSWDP
Method in brief: as §1

panel of 203 kinases [5] = target: T5, panel of 203 kinases (Homo sapiens, UniProt Q96L34); conditions: 10 µM, n=1; kinase MARK4; read-out: Percent inhibition MARK4
T5 construct: purchased DiscoverX (KINOMEscan)
T5 sequence (Q96L34 1-752): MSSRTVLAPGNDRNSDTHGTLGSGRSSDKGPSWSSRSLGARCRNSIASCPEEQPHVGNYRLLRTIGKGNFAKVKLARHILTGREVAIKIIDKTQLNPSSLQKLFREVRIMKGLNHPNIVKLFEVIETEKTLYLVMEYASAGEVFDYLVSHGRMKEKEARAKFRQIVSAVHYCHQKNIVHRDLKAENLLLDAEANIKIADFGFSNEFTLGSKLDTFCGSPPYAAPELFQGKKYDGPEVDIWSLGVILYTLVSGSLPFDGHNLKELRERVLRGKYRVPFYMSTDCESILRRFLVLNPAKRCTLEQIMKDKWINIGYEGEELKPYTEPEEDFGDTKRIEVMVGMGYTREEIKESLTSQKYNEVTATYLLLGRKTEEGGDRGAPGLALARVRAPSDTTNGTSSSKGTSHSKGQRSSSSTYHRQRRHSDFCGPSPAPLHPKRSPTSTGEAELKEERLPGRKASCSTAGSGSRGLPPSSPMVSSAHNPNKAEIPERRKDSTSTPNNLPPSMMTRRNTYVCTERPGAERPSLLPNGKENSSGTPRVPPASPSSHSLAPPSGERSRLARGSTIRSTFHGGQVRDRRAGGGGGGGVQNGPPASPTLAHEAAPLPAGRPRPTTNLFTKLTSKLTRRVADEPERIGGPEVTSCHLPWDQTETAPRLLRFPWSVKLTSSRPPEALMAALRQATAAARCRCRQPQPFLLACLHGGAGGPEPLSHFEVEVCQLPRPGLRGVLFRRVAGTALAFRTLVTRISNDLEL
Method in brief: as §1

panel of 203 kinases [6] = target: T6, panel of 203 kinases (Homo sapiens, UniProt Q8TD19); conditions: 10 µM, n=1; kinase NEK9; read-out: Percent inhibition NEK9
T6 construct: purchased DiscoverX (KINOMEscan)
T6 sequence (Q8TD19 1-979): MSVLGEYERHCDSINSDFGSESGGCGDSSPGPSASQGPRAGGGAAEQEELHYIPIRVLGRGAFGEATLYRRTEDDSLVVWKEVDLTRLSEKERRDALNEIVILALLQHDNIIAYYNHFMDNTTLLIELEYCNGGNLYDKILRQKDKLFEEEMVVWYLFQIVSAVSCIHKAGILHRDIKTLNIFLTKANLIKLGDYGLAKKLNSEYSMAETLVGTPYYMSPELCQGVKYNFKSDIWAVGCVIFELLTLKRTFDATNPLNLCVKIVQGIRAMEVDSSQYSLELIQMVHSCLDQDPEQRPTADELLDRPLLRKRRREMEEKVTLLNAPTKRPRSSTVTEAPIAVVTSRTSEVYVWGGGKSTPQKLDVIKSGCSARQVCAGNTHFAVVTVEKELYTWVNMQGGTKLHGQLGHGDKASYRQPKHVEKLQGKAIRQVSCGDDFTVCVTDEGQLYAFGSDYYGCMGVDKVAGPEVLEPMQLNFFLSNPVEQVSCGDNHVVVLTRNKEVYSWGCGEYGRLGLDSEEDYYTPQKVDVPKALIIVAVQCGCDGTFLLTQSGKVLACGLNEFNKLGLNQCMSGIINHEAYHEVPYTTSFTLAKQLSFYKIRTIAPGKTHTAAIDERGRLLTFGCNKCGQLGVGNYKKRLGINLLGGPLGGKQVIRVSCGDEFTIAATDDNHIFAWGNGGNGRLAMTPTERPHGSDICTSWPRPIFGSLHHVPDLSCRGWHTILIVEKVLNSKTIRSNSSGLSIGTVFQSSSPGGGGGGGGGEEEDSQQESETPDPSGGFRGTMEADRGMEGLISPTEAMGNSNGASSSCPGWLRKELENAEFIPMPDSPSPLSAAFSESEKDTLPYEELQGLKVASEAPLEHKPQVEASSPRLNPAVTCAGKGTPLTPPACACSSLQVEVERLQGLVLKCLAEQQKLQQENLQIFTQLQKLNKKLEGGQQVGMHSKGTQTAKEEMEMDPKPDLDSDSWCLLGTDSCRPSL
Method in brief: as §1

T1 sequence (Q9HC98 whole entry): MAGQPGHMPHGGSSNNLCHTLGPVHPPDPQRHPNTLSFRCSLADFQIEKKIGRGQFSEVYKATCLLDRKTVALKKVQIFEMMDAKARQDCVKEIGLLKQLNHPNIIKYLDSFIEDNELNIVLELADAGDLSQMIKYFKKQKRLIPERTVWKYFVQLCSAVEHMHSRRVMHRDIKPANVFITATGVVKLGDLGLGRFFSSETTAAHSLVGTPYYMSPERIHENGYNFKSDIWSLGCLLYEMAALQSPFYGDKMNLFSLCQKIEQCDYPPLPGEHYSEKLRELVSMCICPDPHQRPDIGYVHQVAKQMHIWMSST

Row | SMILES | inhibition at 10 µM (panel of 203 kinases [1]) [%] | inhibition at 10 µM (panel of 203 kinases [2]) [%] | inhibition at 10 µM (panel of 203 kinases [3]) [%] | inhibition at 10 µM (panel of 203 kinases [4]) [%] | inhibition at 10 µM (panel of 203 kinases [5]) [%] | inhibition at 10 µM (panel of 203 kinases [6]) [%]
1 | C[C@@H](Oc1cc(-c2cnc3ccccn23)sc1C(N)=O)c1ccccc1Cl [Compound 8] | 0 | 0 | 86.1 | 0 | 0 | 94.7
2 | Cc1ccc(O)cc1N(C)c1ccnc(Nc2cccc(S(N)(=O)=O)c2)n1 [Compound 4] | 0 | 100 | 0 | 87 | 0 | 0
3 | COc1cc(Nc2nccc(-c3sc(N)nc3-c3cccc(NC(=O)c4c(F)cccc4F)c3)n2)cc(OC)c1OC [Compound 7] | 97.4 | 100 | 0 | 100 | 0 | 88.9
4 | CN1CCN(c2ccc(Nc3nccc(-c4cnn5ncccc45)n3)cc2C#N)CC1 [Compound 1] | 100 | 83 | 100 | 0 | 0 | 99.2
5 | Fc1cccc(COc2ccc(Nc3ncnc4c3CN(CCN3CCOCC3)CC4)cc2Cl)c1 [Compound 6] | 0 | 0 | 0 | 0 | 0 | 0
6 | Cc1ccc(O)cc1Nc1ccnc(Nc2cccc(C(N)=O)c2)n1 [Compound 3] | 0 | 100 | 0 | 0 | 0 | 0
7 | Clc1ccc(Nc2ncc(-c3ccccc3)s2)cc1 [Compound 10] | 0 | 0 | 0 | 0 | 0 | 0
8 | COc1ccc(Nc2nccc(-c3cnn4ncccc34)n2)cc1 [Compound 2] | 100 | 0 | 98.4 | 0 | 67.8 | 100
9 | c1ccc(COc2cccc(-c3ccnc4[nH]ccc34)c2)cc1 [Compound 9] | 0 | 0 | 0 | 0 | 0 | 0
10 | Nc1ncc2c(-c3ccncc3)c[nH]c2n1 [Compound 11] | 0 | 0 | 92.8 | 0 | 93.8 | 0
